These results are taken from patent EP0960886B1, “Peptide T and related peptides in the treatment of inflammation, including multiple sclerosis” (priority 1992, dated 1993).

Square brackets hold non-standard residues; d marks the D form. Ends that are not written are not given here. Peptide text beside a SMILES is read from it.

One assay relates to LPS. Briefly: LPS toxicity and survival in mice bearing Meth A ascites tumours (Example 7). Type of assay: in vivo. The conditions noted are these: 100 µg LPS subcutaneously with 1mg analogue. The method, then:
Mice bearing Meth A ascites tumours were given 100 µg LPS subcutaneously with either bovine serum albumin (BSA) or peptide T analogue (504 or 505, 1mg). The number of animals showing signs of LPS toxicity (diarrhoea, exudate from the eyes and general level of activity) in each group was recorded at 19, 24 and 41 hours after injection. At the completion of the experiment the number of surviving animals was recorded (see Table II below) and the survivors bled for later determination of TNF, IL-1, IL-6 and RNI levels.

Assay [1] has as its system human neutrophils. As to the kind of experiment: TNF-induced neutrophil chemiluminescence (lucigenin-dependent). Type of assay: cell-based. As to conditions: 500-1000U/ml TNF. The method, then: (§1) Neutrophils. Neutrophils were isolated from whole blood from healthy blood donors. Separation was achieved by the rapid-single-step method of centrifugation of whole blood on FICOLL-HYPAQUE™. These were >99% viable and usually >98% pure.
(§2) Peptides and TNF. TNF was a recombinant product produced in E. coli. Peptide T and analogue 505 (D-Ser-Ser-D-Thr-Thr-D-Thr-Thr-Tyr-D-Thr) were resuspended in Hank's Balanced Salt Solution (HBSS).
(§3) To 100µl of 500-1000U/ml of TNF was added 10µl of peptide and after 5 min 100µl of 1x10^7 neutrophils/ml was added. The cells further incubated at 37°C/20 min and then tested for chemiluminescence activity. In some cases an agonist such as fMLP (10^-7M) was added. Chemiluminescence was measured in a luminometer (LKB). The results for Peptide T are presented in Figure 12 as peak rate of CL release. Lucigenin-dependent chemiluminescence was measured: this represents superoxide measurement. In another set of experiments the effects of analogue 505 on the LPS-induced neutrophil chemiluminescence were examined. In this case the LPS was essentially substituted for the TNF. The concentration of LPS was 0.005µg/ml.

Assay [2] has as its system human neutrophils. Briefly: LPS-induced neutrophil chemiluminescence. Type of assay: cell-based. The conditions noted are these: LPS 0.005µg/ml. The method, then:
as §1, §2, §3

Assay [3] concerns mouse foetal hippocampal neurons. The conditions noted are these: cultures of mouse foetal hippocampal neurons; cited from earlier work.
For assay [4] the following is noted: spinal administration to rats; tail-flick latency and tail-shock induced vocalisation; cited from earlier work.

In the case of `C[C@H](O)[C@@H](NC(=O)[C@H](Cc1ccc(O)cc1)NC(=O)[C@H](CC(N)=O)NC(=O)[C@H](NC(=O)[C@@H](NC(=O)[C@H](NC(=O)[C@H](CO)NC(=O)[C@@H](C)N)[C@H](C)O)[C@@H](C)O)[C@H](C)O)C(N)=O` [analogue 504], in the assay on LPS, the “% mice surviving 41 hours” value is 100%, the “% mice with diarrhoea at 19 hrs” value is recorded as 40% and the “% mice with exudate at 19 hrs” value was 60%.

With `C[C@H](O)[C@@H](NC(=O)[C@H](Cc1ccc(O)cc1)NC(=O)[C@@H](NC(=O)[C@H](NC(=O)[C@@H](NC(=O)[C@H](NC(=O)[C@H](CO)NC(=O)[C@H](N)CO)[C@H](C)O)[C@@H](C)O)[C@H](C)O)[C@@H](C)O)C(N)=O` [analogue 505, D-Ser-Ser-D-Thr-Thr-D-Thr-Thr-Tyr-D-Thr] (H-[dS]S[dT]T[dT]TY[dT]-NH2), in the assay on LPS, the “% mice surviving 41 hours” value was 100%, the “% mice with diarrhoea at 19 hrs” value was determined as 40% and the “% mice with exudate at 19 hrs” value was determined as 20%. Further, the “TNF priming and activation of human neutrophils” value with human neutrophils [1] is “inhibits TNF priming and activation”. Moreover, the “LPS activation of human neutrophils” value with human neutrophils [2] is on record as “inhibits LPS activation”.

With “human vasoactive intestinal peptide (HSDAVFTDNYTRLRKQMAVKKYLNSILN; ends and bridges not checked; UniProt P01282 125-152, looked up) [VIP, reference compound]”, in assay [3], the gp120-induced neurotoxicity entry is “completely eliminated”. Also, in assay [4], the analgesia result is “produced analgesia”.
